What was measured:
[1] = test system: murine invariant natural killer cells (iNKT); assay: Activation of iNKT cells in splenocyte culture, IFNγ ELISA; assay type: cell-based, mice; settings: splenocytes cultured 72 hours with material (titrating amounts 10 μg/ml, 1 μg/ml, 100 ng/ml; concentration of the tabulated values not stated), supernatant ELISA
Experimental: This Example illustrates ability of the threitolceramide-containing liposomes to activate murine invariant natural killer cells (iNKT) and human cells, as measured by IFNγ release.
Splenocytes were prepared from either wild type (WT) or CD1d^−/− (NKT cell deficient) mice and cultured in the presence of titrating amounts (10 μg/ml, 1 μg/ml, 100 ng/ml) of non-glycosidic ceramide containing liposomes (EPC:DDAB:TC(10); EPC:EPG:TC(2); EPC:EPG:TC(5); EPC:EPG:TC(10) and EPC:CHOL:TC(10)), control liposome (EPC:EPG), soluble threitolceramide or soluble α-GalCer for 72 hours. Soluble threitolceramide and soluble α-GalCer were prepared by dissolution in a chloroform/methanol/water solution (10:10:3) at 10 mg/mL. The resulting solution was diluted to a final volume of about 200 μg/mL using vehicle solution comprised of NaCl (about 150 mM) and polyoxyethylene (20) sorbitan monolaurate (i.e., Tween 20, 0.5%). Supernatants were removed from cultures and the amount of IFNγ produced by the cells was quantified by ELISA. Briefly, ELISA plates were coated with 1D1K antibody (Mabtech) and left overnight at 4° C. The plates were washed with 0.05% Tween 20 in PBS (v/v). To eliminate any non-specific antigen binding, the plates were coated (i.e. blocked) with 200 μL of 10% FCS in PBS (v/v) and incubated for 2 h at 37° C. […]

[2] = test system: dendritic cell (DC); assay: DC maturation in vivo, CD86 and CD40 expression on spleen DC by flow cytometry; parameters: species or system mice; settings: median fluorescent intensity, spleen DC 18 hours after 1 μg intravenous injection
Experimental: (§1) This example illustrates the in vivo effect of threitolceramide-containing liposomes on dendritic cell (DC) maturation, as measured by CD86 and CD40 expression, and iNKT cell activation, as measured by IL-4 and IFNγ release.
(§2) WT (n=3) and CD1d^−/− (n=1) mice were administered 1 μg of liposomes (EPC:DDAB:TC(10); EPC:EPG:TC(2); EPC:EPG:TC(5); EPC:EPG:TC(10) and EPC:CHOL:TC(10)) or control liposome (EPC:EPG), soluble threitolceramide or soluble α-GalCer by intravenous injection.
18 hours post-injection, the spleens of the mice were harvested and the phenotype of DC maturation was examined by flow cytometry as determined by the median fluorescent intensity (MFI) of CD86 and CD40 expression.

[3] = test system: iNKT cell; assay: Activation of NKT cells in vivo, serum IL-4 and IFN-γ by ELISA; parameters: species or system mice; settings: 1 μg intravenous injection; for IL-4 (serum): 2 hours; for INFγ (serum): 18 hours
Experimental: as §1, §2
Serums were obtained by tail venipuncture 2 and 18 hours post-injection to detect IL-4 and IFN-γ levels by ELISA.

Row | Structure (SMILES) | IFNγ [1] | CD40 (DC maturation) Median [2] | CD86 (DC maturation) Median [2] | IL-4 (serum) [3] | INFγ (serum) [3]
1 | CCCCCCCCCCCCCCCCCCCCCCCCCC(=O)N[C@@H](COC[C@H](O)[C@@H](O)CO)[C@H](O)[C@H](O)CCCCCCCCCCCCCC [Soluble TC, threitolceramide] | 3.77 ng/mL | 28.9 | 60.1 | 0.12 ng/mL | 0.99 ng/mL
2 | CCCCCCCCCCCCCCCCCCCCCCCCCC(=O)N[C@@H](CO[C@H]1O[C@H](CO)[C@H](O)[C@H](O)[C@H]1O)[C@H](O)[C@H](O)CCCCCCCCCCCCCC [Soluble α-GalCer, α-Galactosylceramide] | 9.21 ng/mL | 39.1 | 91.6 | 0.83 ng/mL | 8.47 ng/mL

— US10039715B2, “Liposomal formulation of nonglycosidic ceramides and uses thereof” (LUDWIG INSTITUTE FOR CANCER RESEARCH LTD., priority 2010, dated 2018)
